The values that follow come from patent US20210283110A1, “COMPOUND FOR USE IN THE TREATMENT OF A DISEASE CHARACTERIZED BY DYSREGULATED MUCUS PRODUCTION AND/OR SECRETION” (UNIVERSITÄT REGENSBURG, priority 2018, published 2021).

For test [1], the system named is freshly isolated crypt cells. Kind of test: ATP-induced Ca2+ rise in freshly isolated crypt cells (Fura-2). The format is cell-based, mouse. As to conditions: low concentrations of niclosamide. As for the experimental part: All methods were carried out as specified in the previous examples. For the measurements of Ca^2+, crypts were isolated from inverted proximal mouse colons using Ca^2+-free Ringer solution with 1 mM DTT and 1 μM indomethacin for 20 min at 37° C. Crypts were loaded with 10 μM Fura2-AM (Biotum, USA) and 1 mg/ml BSA (Sigma-Aldrich) in ringer solution for 1 h at RT. Intracellular Ca^2+ was measured by loading crypts with […] Fura-2/AM and 0.02% Pluronic F-127 (Life Technologies, Germany) in ringer solution for 1 h at room temperature. Fluorescence was detected in cells perfused with Ringer's solution at 37° C. using an inverted microscope (Axiovert S100, Zeiss, Germany) and a high-speed polychromator system (VisiChrome, Germany). Fura-2 was excited at 340/380 nm, and emission was recorded between 470 and 550 nm using a CoolSnap camera (CoolSnap HQ, Visitron).
It was examined whether niclosamide inhibits intestinal mucus secretion. To this end, niclosamide was added to the perfusate. […] The present inventors detected reduced Ca^2+ increase upon ATP-stimulation of freshly isolated crypt cells from Vil1-Cre TMEM16F^flox/flox mice. […] Increase in FM4-64 fluorescence in the plasma membrane is a marker for membrane exocytosis. The present inventors detected that ATP-stimulation (but not cholinergic stimulation) of HEK293 cells expressing TMEM16F induced FM4-64 fluorescence, i.e. exocytosis.

For a further test, the target named is T1, TMEM16A (Homo sapiens, UniProt Q5XXA6).
T1 sequence (Q5XXA6 1-986): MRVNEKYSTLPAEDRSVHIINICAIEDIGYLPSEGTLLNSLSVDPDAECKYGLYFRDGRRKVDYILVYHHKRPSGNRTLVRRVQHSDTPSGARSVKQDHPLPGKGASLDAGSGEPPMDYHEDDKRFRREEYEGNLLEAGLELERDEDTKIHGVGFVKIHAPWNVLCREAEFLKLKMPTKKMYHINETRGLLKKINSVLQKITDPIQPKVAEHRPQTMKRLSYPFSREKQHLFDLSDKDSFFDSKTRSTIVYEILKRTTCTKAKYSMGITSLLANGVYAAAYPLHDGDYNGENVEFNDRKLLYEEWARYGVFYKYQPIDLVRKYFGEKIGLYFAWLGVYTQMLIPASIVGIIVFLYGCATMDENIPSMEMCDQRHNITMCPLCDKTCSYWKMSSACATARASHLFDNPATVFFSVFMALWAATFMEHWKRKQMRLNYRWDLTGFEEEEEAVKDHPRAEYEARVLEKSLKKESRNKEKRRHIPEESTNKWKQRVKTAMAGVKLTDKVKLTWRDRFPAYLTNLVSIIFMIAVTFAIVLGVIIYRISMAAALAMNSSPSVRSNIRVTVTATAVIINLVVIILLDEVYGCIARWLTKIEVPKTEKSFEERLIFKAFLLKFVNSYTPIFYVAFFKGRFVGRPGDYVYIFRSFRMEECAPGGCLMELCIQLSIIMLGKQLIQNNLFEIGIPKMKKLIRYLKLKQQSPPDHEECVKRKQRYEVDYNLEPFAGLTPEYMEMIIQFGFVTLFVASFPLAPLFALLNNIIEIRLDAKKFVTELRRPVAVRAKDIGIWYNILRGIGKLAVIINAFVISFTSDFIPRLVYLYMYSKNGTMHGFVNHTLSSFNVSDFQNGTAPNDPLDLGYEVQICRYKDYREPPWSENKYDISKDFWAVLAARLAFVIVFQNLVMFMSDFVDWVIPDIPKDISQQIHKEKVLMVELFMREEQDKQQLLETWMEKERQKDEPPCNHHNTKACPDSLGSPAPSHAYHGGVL
Set-up: expressed in transfected cells; host or cells: HEK293 cells. As to conditions: Miner et al. [3]; cited from earlier work.

Test [2] relates to Calu3 airway epithelial cells. Kind of test: LPS-induced IL-8 release by Calu3 cells (ELISA). The format is cell-based, human. Conditions: Calu3 cells exposed to LPS for 48 hrs. The procedure: Mouse models were performed according to the previous example. For investigating mucus, IL-8 release, and leukocytes, tissues were fixed using 4% paraformaldehyde (PFA), 0.2% picric acid and 3.4% sucrose in PBS and washed in methanol before embedding in paraffin. Mucus was analyzed using standard Periodic acid-Schiff (PAS) or alcian blue staining. MUC5AC was stained using anti-MUC5AC mouse antibody (1:200, Abcam, ab3649) and a secondary antibody conjugated with Alexa488 (Life Technologies, A-21206). Nuclei were stained with Hoe33342 (0.1 μg/ml PBS, Aplichem, Darmstadt, Germany). Quantikine ELISA kits (R&D systems) were used to measure secretion of the cytokine IL-8 by Calu3 cells.
Calu3 airway epithelial cells were exposed to LPS for 48 hrs and the release of the neutrophil attractor interleukin 8 (IL-8) was measured. […] Upon stimulation with the Th2 cytokine IL-13, Calu3 cells produced MUC5AC. […] Taken together, airway epithelial knockout of TMEM16A caused a defect in mucus secretion, while mucus production was retained (FIG. 16C).
For orientation: An ELISA detects its analyte on a solid surface through an enzyme-linked reagent.

With `O=C(Nc1ccc([N+](=O)[O-])cc1Cl)c1cc(Cl)ccc1O` [niclosamide, 5-chloro-N-(2-chloro-4-nitrophenyl)-2-hydroxybenzamide], the “ATP-induced Ca2+ rise” value in test [1] was “potently inhibited”. Also, the TMEM16A inhibition entry on TMEM16A is “inhibitors of TMEM16A”. Also, the IL-8 release result in test [2] is recorded as “clearly inhibited”.
